# According to patent publication US3944498A, “Germicidal detergent containing a thienyliodonium salt” (The Dow Chemical Company, priority 1973, dated 1976):
# Assays:
# [1] = tested on: Sprague-Dawley (Cox strain) rats; assay: Oral median lethal dose in Sprague-Dawley (Cox strain) rats; type: in vivo; details: 708 mg/kg oral, 24 Hours
# [2] = tested on: S. typhosa; assay: Agar plate kill test with Ivory soap, S. typhosa; type: cell-based; details: 48 h; 1 p.p.m., Ivory soap; read-out: Percent Kill of S. Typhosa
# Experimental: Phenyl-2-thienyliodonium chloride, 2,2'-bisthienyliodonium chloride, and, for comparative purposes, diphenyliodonium chloride are individually dispersed in Ivory soap to provide concentrates containing 1 part by weight of iodonium salt to 50 parts by weight of soap. The soap concentrates are serially dispersed and serially diluted with liquid nutrient agar at 42°C. to prepare culture media containing various concentrations of one of the iodonium salts. The culture media are uniformly inoculated with S. aureus and plated in petri dishes. The inoculation is carried out from broth cultures of the named organism containing about 5×10^8 organisms per milliliter in the proportion of one-tenth milliliter of bacterial culture per 20 milliliters of cultur medium containing each test compound. In a check operation, nutrient agar containing the same amount of Ivory soap is similarly inoculated with the same organism. After two days' incubation at 37°C., the plates are examined for microbial growth.
# The procedure described above is again repeated in a series of tests wherein the culture media are inoculated individually with the organism S. typhosa and wherein the culture media contain varying concentrations of one of the iodonium salts, as set forth in following Table II.
# [3] = tested on: Swiss mice (Cox strain); assay: Oral median lethal dose in Swiss mice (Cox strain); type: in vivo
# Experimental: (§1) Five groups of mice, each consisting of 15 males and 15 females, were given ClPhThICl in an aqueous 0.5 percent METHOCEL hydroxypropyl methylcellulose (4000 cps.) suspension at a concentration of 300 mg/ml. The compound was administered as a single oral dose at 0.2 logarithmic dose intervals (708, 1120, 1780, 2820, 4450 mg/kg) and the following mortality experience was noted:
# (§2) The percent of total mortalities occurring was 16.0, 66.6, 81.5, and 91.3 at 6, 24, 48 and 72 hours post-treatment, respectively. The last death occurred in a female (1120 mg/kg group) on day 14 of the study.
# [4] = Oral median lethal dose in Swiss mice (Cox strain); type: in vivo; details: mouse, in vivo, po; for LD50 at 168 h: 7 days; for LD50 at 336 h: 14 days
# Experimental: as §1, §2
# [5] = male mice, 95% confidence limits 1353-2288 mg/kg
smiles,measurement,setting,value
Clc1ccc([I+]c2cccs2)cc1.[Cl-] [4-Chlorophenyl-2-thienyliodonium chloride],No. Dead,[1]; females,0/10
same,No. Dead,[1]; males,1/10
same,killing at 1 ppm,[2],100%
same,No. Dead,"[3]; 708 mg/kg oral, 7 Days, females",1/15
same,No. Dead,"[3]; 708 mg/kg oral, 7 Days, males",0/15
same,No. Dead,"[3]; 708 mg/kg oral, 14 Days, females",2/15
same,No. Dead,"[3]; 708 mg/kg oral, 14 Days, males",1/15
same,No. Dead,"[3]; 708 mg/kg oral, 24 Hours, females",0/15
same,No. Dead,"[3]; 708 mg/kg oral, 24 Hours, males",0/15
same,No. Dead,"[3]; 1120 mg/kg oral, 7 Days, females",1/15
same,No. Dead,"[3]; 1120 mg/kg oral, 7 Days, males",1/15
same,No. Dead,"[3]; 1120 mg/kg oral, 14 Days, females",2/15
same,No. Dead,"[3]; 1120 mg/kg oral, 14 Days, males",1/15
same,No. Dead,"[3]; 1120 mg/kg oral, 24 Hours, females",0/15
same,No. Dead,"[3]; 1120 mg/kg oral, 24 Hours, males",0/15
same,No. Dead,"[3]; 1780 mg/kg oral, 7 Days, females",8/15
same,No. Dead,"[3]; 1780 mg/kg oral, 7 Days, males",8/15
same,No. Dead,"[3]; 1780 mg/kg oral, 14 Days, females",8/15
same,No. Dead,"[3]; 1780 mg/kg oral, 14 Days, males",9/15
same,No. Dead,"[3]; 1780 mg/kg oral, 24 Hours, females",4/15
same,No. Dead,"[3]; 1780 mg/kg oral, 24 Hours, males",3/15
same,No. Dead,"[3]; 2820 mg/kg oral, 7 Days, females",14/15
same,No. Dead,"[3]; 2820 mg/kg oral, 7 Days, males",14/15
same,No. Dead,"[3]; 2820 mg/kg oral, 14 Days, females",14/15
same,No. Dead,"[3]; 2820 mg/kg oral, 14 Days, males",14/15
same,No. Dead,"[3]; 2820 mg/kg oral, 24 Hours, females",8/15
same,No. Dead,"[3]; 2820 mg/kg oral, 24 Hours, males",11/15
same,No. Dead,"[3]; 4450 mg/kg oral, 7 Days, females",15/15
same,No. Dead,"[3]; 4450 mg/kg oral, 7 Days, males",15/15
same,No. Dead,"[3]; 4450 mg/kg oral, 14 Days, females",15/15
same,No. Dead,"[3]; 4450 mg/kg oral, 14 Days, males",15/15
same,No. Dead,"[3]; 4450 mg/kg oral, 24 Hours, females",13/15
same,No. Dead,"[3]; 4450 mg/kg oral, 24 Hours, males",15/15
same,percent of total mortalities occurring,[3]; 6 hours post-treatment,16.0%
same,percent of total mortalities occurring,[3]; 24 hours post-treatment,66.6%
same,percent of total mortalities occurring,[3]; 48 hours post-treatment,81.5%
same,percent of total mortalities occurring,[3]; 72 hours post-treatment,91.3%
same,time of last death,"[3]; female, 1120 mg/kg group",14 days
same,LD50 at 24 h,"[4]; female mice, 95% confidence limits 2300-3591 mg/kg",2700 mg/kg
same,LD50 at 24 h,"[4]; male mice, 95% confidence limits 1916-2760 mg/kg",2300 mg/kg
same,LD50 at 168 h,"[4]; female mice, 95% confidence limits 1172-2455 mg/kg",1700 mg/kg
same,LD50 at 168 h,[4]; [5],1760 mg/kg
same,LD50 at 336 h,"[4]; female mice, 95% confidence limits 1264-1975 mg/kg",1580 mg/kg
same,LD50 at 336 h,[4]; [5],1760 mg/kg
